How the values were obtained:
Assay type in all cases: functional
Conditions in all cases: read-out: IZ
[1] = test system: Candida albicans; test: Antifungal activity against Candida albicans at 10 ug
[2] = test system: Bacillus subtilis; test: Antibacterial activity against Bacillus subtilis at 0.1 ug
[3] = test system: Candida albicans; test: Antifungal activity against Candida albicans at 0.1 ug
[4] = test system: Bacillus subtilis; test: Antibacterial activity against Bacillus subtilis at 1 ug

| SMILES | zone of inhibition at 10 µg/disc [1] [mm] | zone of inhibition at 0.1 µg/disc [2] [mm] | zone of inhibition at 0.1 µg/disc [3] [mm] | zone of inhibition at 1 µg/disc [4] [mm] |
| --- | --- | --- | --- | --- |
| COc1cc(CCNC(C)=O)c2c(c1OC)SSSSS2 [VARACIN ACETATE] | 20 |  |  |  |
| COc1cc(CCNC(C)=O)c2c(c1OC)SSS2 [VARACIN A ACETATE] | 20 |  |  |  |
| COc1cc(CCN)c2c(c1OC)SSSSS2 [VARACIN] |  | 20 | 20 | 20 |
| COc1cc(CCNC(C)=O)c2c(c1OC)SS[S+]2[O-] (configuration not stated) [VARACIN C ACETATE] | 20 |  |  |  |
| COc1cc(CCNC(C)=O)c2c(c1OC)[S+]([O-])SS2 (configuration not stated) [VARACIN B ACETATE] | 20 |  |  |  |

Reference: ChEMBL document CHEMBL1159222, “Varacin and three new marine antimicrobial polysulfides from the far-eastern ascidian Polycitor sp” (1995)
